Source: patent publication US12384753B2, “17-beta-hydroxysteroid dehydrogenase type 13 inhibitors and methods of use thereof” (Enanta Pharmaceuticals, Inc., priority 2021, dated 2025)

Target: Recombinant human HSD17B13 (Homo sapiens (Human), UniProt Q7Z5P4)
Assay: HSD17B13 rapid-fire mass spectrometry assay (RF/MS assay)
Type: biochemical
Conditions: inhibition of HSD17B13; LTB4 10 μM, NAD+ 0.5 mM, RT 3 h; IC50 ranges A-E
Excerpt: HSD17B13 rapid-fire mass spectrometry assay (RF/MS assay). Recombinant human HSD17B13 was expressed and purified from sf9 cells at Charles River Labs (Saffron Walden, UK). Leukotriene B4 (Catalog #71160-24-2) and 12-oxoleukotriene B4 (Catalog #20140) were purchased from Cayman Chemicals (Ann Arbor, Michigan.). NAD+ (Catalog #N8285), BSA (Catalog #A7030), DMSO (Catalog #D2650), and Tween-20 (Catalog #11332465001) were purchased from Sigma (St. Louis, MO). Formic acid (Catalog #28905) was from ThermoFisher Scientific and 384 deep well PP microplates (Catalog #784261) were from Greiner Bio-One. In a typical IC50 assay performed in a 384w PP microplate, test compounds (0-100 μM) were incubated with HSD17B13 (80 nM), LTB4 (10 μM), and NAD^+ (0.5 mM) in 10 μL assay buffer (20 mM Tris (pH 7.5), BSA (0.005%), and Tween-20 (0.01%)) at RT for 3 h. The assays were quenched by adding 20 μL of 0.15% aqueous formic acid and the plates were frozen at −80° C. RF/MS analysis was performed at PureHoney Technologies (Billerica, MA) on a RapidFire RF300 system (Agilent Technologies, Inc.) coupled to an API 4000 triple quadrupole mass spectrometer (Sciex) equipped with Agilent RapidFire cartridge type A (C4). The mobile phase was 0.09% formic acid and 0.01% trifluoracetic acid in water (Buffer A) and 0.09% formic acid and 0.01% trifluoracetic acid in 80% aqueous acetonitrile (Buffer B). The RapidFire method conditions were the following: 250 ms aspirate, 3000 ms load/desalt, 4000 ms elute, and 500 ms re-equilibrate. RF-MS/MS was performed in negative polarity (−4500 V), the source temperature was 650° C., and gas 1 and gas 2 settings for nitrogen were set to 50. The curtain gas and collision gas were also nitrogen and were set to 20 and 12, respectively. Leukotriene B4 (335.3) and 12-oxoLeukotriene B4 (333.3) SRM transitions were optimized with Discovery Quant software and extracted ion counts for these analytes were determined.
Data Analysis. HSD17B13 enzyme activity was measured as percent conversion of extracted ion counts and normalized to high and low controls to determine percent residual activity at various concentrations of test compounds. Data were fitted to normalized activity (variable slope) versus concentration fit in GraphPad Prism 7 to determine IC50. All experiments were run in duplicates.
By using above method, the inhibition of HSD17B13 was evaluated for the compounds of Formula (I). IC50 ranges are as follows: A=IC50<0.100 μM; B=0.100 μM<IC50<0.500 μM; C=0.500 μM<IC50<1 μM; D=1 μM<IC50<100 μM; E=IC50>100 μM

Recombinant human HSD17B13, sequence (Q7Z5P4 20-300): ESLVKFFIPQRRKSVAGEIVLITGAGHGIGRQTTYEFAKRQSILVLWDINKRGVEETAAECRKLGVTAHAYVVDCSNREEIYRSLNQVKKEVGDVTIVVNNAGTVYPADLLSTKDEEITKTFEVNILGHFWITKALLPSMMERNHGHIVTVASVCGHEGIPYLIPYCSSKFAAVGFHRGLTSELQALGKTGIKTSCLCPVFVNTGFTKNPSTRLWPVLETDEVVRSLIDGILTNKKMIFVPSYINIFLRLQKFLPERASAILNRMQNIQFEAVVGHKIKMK

SMILES	IC50
COc1cc(C(=O)O)ccc1NS(=O)(=O)c1csc(C2CCC(c3ccccc3)CC2)n1 (single isomer, unassigned) [Example 369]	100 to 500 nM
CCOc1cc(C(=O)O)ccc1NS(=O)(=O)c1cnc(-c2ccc(F)cc2)s1 [Example 1]	500 to 1000 nM
O=C(O)c1ccc(NS(=O)(=O)c2ccc(F)cc2)cc1 [Example 3]	1000 to 100000 nM
O=C(O)c1ccc(NS(=O)(=O)c2ccc3ccccc3c2)cc1 [Example 4]	1000 to 100000 nM
COc1cc2c(cc1C(=O)O)CN(S(=O)(=O)c1ccc(F)cc1)CC2 [Example 5, 2-((4-fluorophenyl)sulfonyl)-6-methoxy-1,2,3,4-tetrahydroisoquinoline-7-carboxylic acid]	> 100000 nM
O=C(O)c1cc2c(cc1F)CCN(S(=O)(=O)c1ccc(F)cc1)C2 [Example 6, 6-fluoro-2-((4-fluorophenyl)sulfonyl)-1,2,3,4-tetrahydroisoquinoline-7-carboxylic acid]	1000 to 100000 nM
O=C(O)c1ccc2c(c1)CCCN2S(=O)(=O)c1ccc(F)cc1 [Example 7]	1000 to 100000 nM
COc1nc2c(cc1C(=O)O)CN(S(=O)(=O)c1ccc(F)cc1)CC2 [Example 8, 6-((4-fluorophenyl)sulfonyl)-2-methoxy-5,6,7,8-tetrahydro-1,6-naphthyridine-3-carboxylic acid]	> 100000 nM
O=C(O)c1cc2c(cc1F)OCCN2S(=O)(=O)c1ccc(F)cc1 [Example 9, 7-fluoro-4-((4-fluorophenyl)sulfonyl)-3,4-dihydro-2H-benzo[b][1,4]oxazine-6-carboxylic acid]	1000 to 100000 nM
O=C(O)c1ccc2c(c1)N(S(=O)(=O)c1ccc(F)cc1)CC2 [Example 10]	1000 to 100000 nM
O=C(O)c1ccc2c(c1)CN(S(=O)(=O)c1ccc(F)cc1)C2 [Example 11]	> 100000 nM
O=C(O)c1ccc2c(c1)CCN2S(=O)(=O)c1ccc(F)cc1 [Example 12]	> 100000 nM
O=C(O)c1ccc2c(c1)CCN2S(=O)(=O)c1ccccc1 [Example 13]	1000 to 100000 nM
O=C(O)c1cc2c(cc1F)N(S(=O)(=O)c1ccc(F)cc1)CCC2 [Example 14, 7-fluoro-1-((4-fluorophenyl)sulfonyl)-1,2,3,4-tetrahydroquinoline-6-carboxylic acid]	1000 to 100000 nM
O=C(O)c1ccc(NS(=O)(=O)c2csc(-c3ccccc3)n2)cc1 [Example 15]	500 to 1000 nM
O=C(O)c1ccccc1NS(=O)(=O)c1cnc(-c2ccc(F)cc2)s1 [Example 16]	1000 to 100000 nM
O=C(O)c1cccc(NS(=O)(=O)c2cnc(-c3ccc(F)cc3)s2)c1 [Example 17]	> 100000 nM
COC(=O)c1ccc(NS(=O)(=O)c2cnc(-c3ccc(F)cc3)s2)cc1C [Example 18]	1000 to 100000 nM
Cc1cc(NS(=O)(=O)c2cnc(-c3ccc(F)cc3)s2)ccc1C(=O)O [Example 19]	500 to 1000 nM
Cc1cc(C(=O)O)ccc1NS(=O)(=O)c1cnc(-c2ccc(F)cc2)s1 [Example 20]	1000 to 100000 nM

SMILES	IC50
O=C(O)c1ccc(NS(=O)(=O)c2cnc(-c3ccc(F)cc3)s2)cc1F [Example 21]	500 to 1000 nM
COc1cc(NS(=O)(=O)c2cnc(-c3ccc(F)cc3)s2)ccc1C(=O)O [Example 22]	1000 to 100000 nM
COc1cc(C(=O)O)ccc1NS(=O)(=O)c1cnc(-c2ccc(F)cc2)s1 [Example 23]	< 100 nM
O=S(=O)(Nc1ccccc1)c1cnc(-c2ccc(F)cc2)s1 [Example 24]	> 100000 nM
O=S(=O)(Nc1ccccc1)c1csc(-c2ccccc2)n1 [Example 25]	> 100000 nM
O=C(O)c1ccc(NS(=O)(=O)c2cnc(-c3ccc(F)cc3)s2)cn1 [Example 26]	1000 to 100000 nM
O=C(O)Cc1ccc(NS(=O)(=O)c2cnc(-c3ccc(F)cc3)s2)cc1 [Example 27]	1000 to 100000 nM
O=C(O)c1ccc(NS(=O)(=O)c2cnc(-c3ccc(F)cc3)s2)c(F)c1 [Example 28]	100 to 500 nM
O=C(O)c1ccc(CNS(=O)(=O)c2cnc(-c3ccc(F)cc3)s2)cc1 [Example 29]	1000 to 100000 nM
O=C(O)Cc1ccc(CNS(=O)(=O)c2cnc(-c3ccc(F)cc3)s2)cc1 [Example 30]	> 100000 nM
CC(C)(C)c1ccc(S(=O)(=O)NC(=O)c2ccc(NS(=O)(=O)c3cnc(-c4ccc(F)cc4)s3)cc2)cc1 [Example 31, N-((4-(tert-butyl)phenyl)sulfonyl)-4-((2-(4-fluorophenyl)thiazole)-5-sulfonamido)benzamide]	1000 to 100000 nM
CN(C)S(=O)(=O)NC(=O)c1ccc(NS(=O)(=O)c2cnc(-c3ccc(F)cc3)s2)cc1 [Example 32]	1000 to 100000 nM
O=C(O)c1ccc(NS(=O)(=O)c2cnc(-c3ccc(F)cc3)s2)nc1 [Example 33]	1000 to 100000 nM
O=S(=O)(Nc1ccc(-c2nnn[nH]2)cc1)c1cnc(-c2ccc(F)cc2)s1 [Example 34]	1000 to 100000 nM
Cn1nnnc1-c1ccc(NS(=O)(=O)c2cnc(-c3ccc(F)cc3)s2)cc1 [Example 35]	1000 to 100000 nM
O=S(=O)(Nc1ccc(CO)cc1)c1cnc(-c2ccc(F)cc2)s1 [Example 36, 2-(4-fluorophenyl)-N-(4-(hydroxymethyl)phenyl)thiazole-5-sulfonamide]	1000 to 100000 nM
CC(C)Oc1cc(C(=O)O)ccc1NS(=O)(=O)c1cnc(-c2ccc(F)cc2)s1 [Example 37]	1000 to 100000 nM
CC(C)(C)c1ccc(S(=O)(=O)NC(=O)OCc2ccc(NS(=O)(=O)c3cnc(-c4ccc(F)cc4)s3)cc2)cc1 [Example 38, 4-((2-(4-fluorophenyl)thiazole)-5-sulfonamido)benzyl ((4-(tert-butyl)phenyl)sulfonyl)carbamate]	1000 to 100000 nM
COc1cc(C(=O)O)c(F)cc1NS(=O)(=O)c1cnc(-c2ccc(F)cc2)s1 [Example 39]	< 100 nM
O=C(O)c1ccc(NS(=O)(=O)c2cnc(-c3ccc(F)cc3)s2)c(O)c1 [Example 40, 4-((2-(4-fluorophenyl)thiazole)-5-sulfonamido)-3-hydroxybenzoic acid]	< 100 nM

SMILES	IC50
COc1ccc(NS(=O)(=O)c2cnc(-c3ccc(F)cc3)s2)cc1 [Example 42]	1000 to 100000 nM
O=C(O)c1ccc(NS(=O)(=O)c2cnc(-c3ccc(F)cc3)s2)c(OC2CC2)c1 [Example 43]	1000 to 100000 nM
O=C(O)c1ccc(NS(=O)(=O)c2cnc(-c3ccc(F)cc3)s2)c(C2CC2)c1 [Example 44]	1000 to 100000 nM
O=C(O)c1ccc(NS(=O)(=O)c2cnc(-c3ccc(F)cc3)s2)c(C(F)(F)F)c1 [Example 45]	1000 to 100000 nM
O=C(O)c1cc(F)c(NS(=O)(=O)c2cnc(-c3ccc(F)cc3)s2)c(F)c1 [Example 46]	100 to 500 nM
O=C(O)c1ccc(NS(=O)(=O)c2cnc(-c3ccc(F)cc3)s2)cc1-c1ccccc1 [Example 47]	1000 to 100000 nM
O=C(O)c1ccc(NS(=O)(=O)c2cnc(-c3ccc(F)cc3)s2)c(OC(F)(F)F)c1 [Example 48]	1000 to 100000 nM
O=C(O)c1ccc(NS(=O)(=O)c2cnc(-c3ccc(F)cc3)s2)c(OC(F)F)c1 [Example 49]	1000 to 100000 nM
O=C(O)c1ccc(NS(=O)(=O)c2cnc(-c3ccc(F)cc3)s2)c(F)c1F [Example 50]	100 to 500 nM
O=C(O)c1ccc(S(=O)(=O)Nc2ccc(-c3nccs3)cc2)cc1 [Example 51]	1000 to 100000 nM
O=C(O)c1ccc(NS(=O)(=O)c2cscn2)cc1 [Example 52]	1000 to 100000 nM
Cc1nc(S(=O)(=O)Nc2ccc(C(=O)O)cc2)cs1 [Example 53]	1000 to 100000 nM
Cc1cnn(-c2ccc(S(=O)(=O)Nc3ccc(C(=O)O)cc3)cc2F)c1 [Example 54]	1000 to 100000 nM
Cc1sc(-c2ccc(F)cc2)nc1S(=O)(=O)Nc1ccc(C(=O)O)cc1 [Example 55, 4-((2-(4-fluorophenyl)-5-methylthiazole)-4-sulfonamido)benzoic acid]	1000 to 100000 nM
COc1ccc(-c2nc(S(=O)(=O)Nc3ccc(C(=O)O)cc3)cs2)cc1 [Example 56, 4-((2-(4-methoxyphenyl)thiazole)-4-sulfonamido)benzoic acid]	500 to 1000 nM
O=C(O)c1ccc(NS(=O)(=O)c2csc(N3CCOCC3)n2)cc1 [Example 57, 4-((2-morpholinothiazole)-4-sulfonamido)benzoic acid]	1000 to 100000 nM
O=C(O)c1ccc(NS(=O)(=O)c2csc(N3CCC(F)(F)CC3)n2)cc1 [Example 58]	1000 to 100000 nM
COc1c(NS(=O)(=O)c2cnc(-c3ccc(F)cc3)s2)ccc(C(=O)O)c1F [Example 59]	100 to 500 nM
